Results from US10632124B2, “Adrenoceptors antagonists for the prevention and treatment of neurodegenerative conditions” (Cedars-Sinai Medical Center, priority 2013, dated 2020).

How the values were obtained:
[1] = test system: patients with a diagnosis of iPD; assay: Retrospective cross-sectional medical record analysis of 333 iPD patients: constipation; assay type: in vivo, human; settings: for Constipation, % of patients / No Constipation, % of patients: by dopaminergic treatment
From the text: The inventors conducted a retrospective, cross-sectional medical record analysis of 333 consecutive patients with a diagnosis of iPD seen in the Movement Disorders clinic of Cedars-Sinai Medical Center from October 2010 to March 2014. Demographic and clinical data, including vitals, motor and non-motor symptoms, dopaminergic medications, comorbidities and anti-hypertensive medications were collected at the initial consultation visit. All data were collected in an Excel database and analyzed by SPSS version 19.0 (SPSS, Inc., Chicago, Ill.). Continuous variables were expressed as mean±standard deviation and compared by the use of Student t test (normally distributed) or as median±interquartile range value and compared by the use of Mann-Whitney U test (not normally distributed), as appropriate. Normality of data distribution was evaluated using the Kolmogorov-Smirnov test. Categorical variables were expressed as proportion and compared by use of χ^2 test with risk ratios and 95% confidence intervals quoted. To determine the independent predictors of constipation, logistic regression analysis was performed. Variables achieving p<0.1 on univariate analysis were then included in a multivariate analysis. Statistical significance was accepted at p<0.05. […] Constipation was strongly associated with dopaminergic treatment. On the other hand, only 28/63 (44.4%) patients treated with beta-blockers reported constipation (Table 2).

[2] = test system: Parkinson's disease patient; assay: Case report of one Parkinson's disease patient; assay type: in vivo, human
Procedure: Low-dose beta-blocker therapy (carvedilol 6.25 mg BID) was started to treat anxiety avoiding the sedative effect of benzodiazepine.

[3] = test system: rectum, mid colon and distal colon; settings: wild type rats, cited from earlier work
[4] = in vivo; cited from earlier work
[5] = current (oral) formulations; cited from earlier work
Parkinson's disease = settings: in vivo; cited from earlier work

## NC12CC3CC(CC(C3)C1)C2 [Amantadine]
[1]
  OR of constipation, univariate logistic regression: 1.528

## N[C@@H](Cc1ccc(O)c(O)c1)C(=O)O [Levodopa, levodopa]
[2]; Sinemet 25/100 TID added to pramipexole
  motor symptoms: almost complete resolution of motor symptoms
[1]; Betablockers
  Constipation, % of patients: 60.0%
  No Constipation, % of patients: 40.0%
[1]; No Betablockers
  Constipation, % of patients: 71.7%
  No Constipation, % of patients: 28.3%
[1]; multivariate incl. age, gender, PD duration, levodopa, dopamine-agonists, beta-blockers
  OR of constipation, multivariate logistic regression: 2.077
[1]
  OR of constipation, univariate logistic regression: 2.659

## CN1[C@@H]2CC[C@H]1C[C@@H](OC(=O)C(CO)c1ccccc1)C2 (some centres unmarked) [atropine]
[3]
  contractions induced by vagus nerve and pelvic nerve stimulation: abolished

## CC(C)NCC(O)COc1ccc(CCOCC2CC2)cc1 (centres unmarked) [betaxolol]
[4]
  passage of the blood-brain barrier: pass the blood-brain barrier

## CC(C)NCC(O)COc1ccc(COCCOC(C)C)cc1 (centres unmarked) [bisopropolol]
[4]
  passage of the blood-brain barrier: pass the blood-brain barrier

## Cc1cc2c(OCC(CNC(C)(C)C)OC(=O)c3ccccc3)cccc2[nH]1 (centres unmarked) [bopindolol]
[4]
  passage of the blood-brain barrier: pass the blood-brain barrier

## COc1ccccc1OCCNCC(O)COc1cccc2[nH]c3ccccc3c12 (centres unmarked) [carvedilol]
[2]; 6.25 mg BID
  anxiety, constipation and sleep: improved dramatically
[2]; restarted at the same dose after self-discontinuation
  GI symptoms (abdominal bloating and constipation): virtually immediate resolution
[5]
  absorption: rapid and complete
  average elimination half-life: about 8 hours
[4]
  passage of the blood-brain barrier: pass the blood-brain barrier

## CCC1(c2c[nH]cn2)Cc2ccc(F)cc2C1 (centres unmarked) [fipemazole]
Parkinson's disease
  levodopa-induced dyskinesias: could also be diminished

## c1ccc2c(c1)OCC(C1=NCCN1)O2 (centres unmarked) [idaxozan]
Parkinson's disease
  levodopa-induced dyskinesias: could also be diminished

## CC(C)(C)NCC(O)COc1cccc2c1CC(O)C(O)C2 (centres unmarked) [nadolol]
Parkinson's disease
  resting, postural, and action tremor in Parkinson's disease: can be diminished

## C=CCOc1ccccc1OCC(O)CNC(C)C (centres unmarked) [oxprenolol]
[4]
  passage of the blood-brain barrier: pass the blood-brain barrier

## CCCN[C@H]1CCc2nc(N)sc2C1 [pramipexole]
[2]; doses up to 1.5 mg TID
  tolerability: tolerated well

## CC(C)NCC(O)COc1cccc2ccccc12 (centres unmarked) [propranolol]
Parkinson's disease
  levodopa-induced dyskinesias: could reduce levodopa-induced dyskinesias without worsening Parkinsonism
[3]; rectum, mid colon, distal colon
  relaxations induced by hypogastric nerve stimulation: abolished
[4]
  passage of the blood-brain barrier: pass the blood-brain barrier

## CC(C)(C)NC[C@H](O)COc1nsnc1N1CCOCC1 [timolol]
[4]
  passage of the blood-brain barrier: pass the blood-brain barrier
